Each structure is given as a SMILES string.

What is called Ki is the equilibrium dissociation constant of an inhibitor or competing ligand from its target. The low end stands for a stronger hold on the target, the high end for a looser hold on the target.

What all share (assay): Determination of Inhibitor Ki
Holding throughout (settings): pH 7.4; 22 °C

Assay [1] concerns the target T1, TYR_PHOSPHATASE_2 domain-containing protein (Mycobacterium tuberculosis (strain CDC 1551 / Oshkosh), UniProt P96830).
T1 sequence (P96830 whole entry): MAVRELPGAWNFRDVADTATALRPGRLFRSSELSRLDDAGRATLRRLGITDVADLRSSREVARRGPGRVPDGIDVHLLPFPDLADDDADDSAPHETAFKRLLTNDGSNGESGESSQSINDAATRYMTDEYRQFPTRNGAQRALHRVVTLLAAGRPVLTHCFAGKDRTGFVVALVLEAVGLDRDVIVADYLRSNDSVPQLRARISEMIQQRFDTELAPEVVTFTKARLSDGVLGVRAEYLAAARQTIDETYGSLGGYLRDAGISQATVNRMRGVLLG

Assay [2] addresses T2, Tyrosine-protein phosphatase non-receptor type 2 (Homo sapiens, UniProt P17706).
T2 sequence (P17706 whole entry): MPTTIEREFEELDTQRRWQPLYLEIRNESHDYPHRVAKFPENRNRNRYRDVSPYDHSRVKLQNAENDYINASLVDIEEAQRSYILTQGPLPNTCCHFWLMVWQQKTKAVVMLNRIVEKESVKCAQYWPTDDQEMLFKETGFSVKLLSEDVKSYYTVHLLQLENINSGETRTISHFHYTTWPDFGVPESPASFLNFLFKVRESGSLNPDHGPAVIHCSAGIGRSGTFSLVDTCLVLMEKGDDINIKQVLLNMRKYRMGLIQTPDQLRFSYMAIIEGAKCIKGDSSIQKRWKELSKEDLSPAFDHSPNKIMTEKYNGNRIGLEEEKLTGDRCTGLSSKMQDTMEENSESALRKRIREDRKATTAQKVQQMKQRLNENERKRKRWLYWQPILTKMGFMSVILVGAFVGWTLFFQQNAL

In assay [3] the target is Receptor-type tyrosine-protein phosphatase F (Homo sapiens, UniProt P10586).
Sequence of Receptor-type tyrosine-protein phosphatase F (P10586 whole entry): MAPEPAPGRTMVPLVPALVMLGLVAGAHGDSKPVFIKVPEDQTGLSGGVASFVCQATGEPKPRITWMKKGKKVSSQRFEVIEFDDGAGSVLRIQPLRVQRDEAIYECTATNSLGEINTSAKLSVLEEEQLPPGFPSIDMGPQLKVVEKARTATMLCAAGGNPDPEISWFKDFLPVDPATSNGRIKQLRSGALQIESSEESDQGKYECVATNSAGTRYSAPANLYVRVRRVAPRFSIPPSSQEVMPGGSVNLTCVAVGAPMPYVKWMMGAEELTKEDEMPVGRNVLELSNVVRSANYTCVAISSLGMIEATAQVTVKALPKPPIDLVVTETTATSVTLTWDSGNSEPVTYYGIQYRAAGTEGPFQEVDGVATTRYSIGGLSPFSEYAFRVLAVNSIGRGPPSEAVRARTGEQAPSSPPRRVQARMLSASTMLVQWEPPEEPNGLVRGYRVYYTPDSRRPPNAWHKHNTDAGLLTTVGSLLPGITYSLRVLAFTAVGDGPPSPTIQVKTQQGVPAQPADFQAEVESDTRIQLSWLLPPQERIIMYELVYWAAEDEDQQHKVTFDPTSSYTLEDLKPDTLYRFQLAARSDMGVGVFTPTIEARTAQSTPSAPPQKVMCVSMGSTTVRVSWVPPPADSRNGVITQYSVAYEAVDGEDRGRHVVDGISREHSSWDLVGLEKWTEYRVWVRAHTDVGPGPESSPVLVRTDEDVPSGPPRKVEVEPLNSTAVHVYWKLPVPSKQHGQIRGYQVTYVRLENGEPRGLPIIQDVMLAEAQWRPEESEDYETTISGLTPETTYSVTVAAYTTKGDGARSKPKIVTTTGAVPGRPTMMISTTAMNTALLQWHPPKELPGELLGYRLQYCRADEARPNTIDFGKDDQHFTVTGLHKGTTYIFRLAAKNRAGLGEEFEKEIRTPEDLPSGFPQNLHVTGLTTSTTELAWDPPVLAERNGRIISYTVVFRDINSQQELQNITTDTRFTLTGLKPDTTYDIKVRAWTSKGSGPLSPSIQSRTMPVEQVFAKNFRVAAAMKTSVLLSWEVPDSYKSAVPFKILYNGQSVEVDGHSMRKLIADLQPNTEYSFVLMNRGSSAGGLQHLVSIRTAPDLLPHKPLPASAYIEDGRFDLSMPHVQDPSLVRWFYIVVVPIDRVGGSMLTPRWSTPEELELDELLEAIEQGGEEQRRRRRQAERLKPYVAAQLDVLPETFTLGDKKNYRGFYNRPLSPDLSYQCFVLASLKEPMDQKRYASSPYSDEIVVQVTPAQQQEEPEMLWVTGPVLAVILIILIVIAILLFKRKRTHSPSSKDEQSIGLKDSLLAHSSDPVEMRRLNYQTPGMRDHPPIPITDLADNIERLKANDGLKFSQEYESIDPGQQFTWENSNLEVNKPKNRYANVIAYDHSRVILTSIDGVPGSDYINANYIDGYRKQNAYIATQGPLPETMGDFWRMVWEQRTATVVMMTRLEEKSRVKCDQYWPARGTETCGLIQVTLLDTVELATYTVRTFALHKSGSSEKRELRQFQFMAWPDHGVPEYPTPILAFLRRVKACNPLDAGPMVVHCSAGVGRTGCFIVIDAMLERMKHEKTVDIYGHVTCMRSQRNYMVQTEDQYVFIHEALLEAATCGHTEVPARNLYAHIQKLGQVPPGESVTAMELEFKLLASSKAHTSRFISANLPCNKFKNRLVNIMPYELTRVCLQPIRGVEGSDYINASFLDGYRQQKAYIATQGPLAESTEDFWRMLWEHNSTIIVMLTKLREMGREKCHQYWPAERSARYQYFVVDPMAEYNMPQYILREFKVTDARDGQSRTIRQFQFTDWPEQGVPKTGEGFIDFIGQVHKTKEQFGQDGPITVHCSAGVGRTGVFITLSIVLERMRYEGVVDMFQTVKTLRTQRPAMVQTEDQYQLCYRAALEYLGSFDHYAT
For assay [4], the target named is T3, Low molecular weight protein-tyrosine phosphatase A (Mycobacterium tuberculosis (strain ATCC 25618 / H37Rv), UniProt P9WIA1).
T3 sequence (P9WIA1 whole entry): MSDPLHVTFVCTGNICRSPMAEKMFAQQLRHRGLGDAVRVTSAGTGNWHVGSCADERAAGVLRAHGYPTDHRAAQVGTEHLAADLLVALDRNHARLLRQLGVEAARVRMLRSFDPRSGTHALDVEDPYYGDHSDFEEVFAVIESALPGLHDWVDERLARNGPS

Assay [5] deals with T4, Receptor-type tyrosine-protein phosphatase C (Homo sapiens, UniProt P08575).
T4 sequence (P08575 whole entry): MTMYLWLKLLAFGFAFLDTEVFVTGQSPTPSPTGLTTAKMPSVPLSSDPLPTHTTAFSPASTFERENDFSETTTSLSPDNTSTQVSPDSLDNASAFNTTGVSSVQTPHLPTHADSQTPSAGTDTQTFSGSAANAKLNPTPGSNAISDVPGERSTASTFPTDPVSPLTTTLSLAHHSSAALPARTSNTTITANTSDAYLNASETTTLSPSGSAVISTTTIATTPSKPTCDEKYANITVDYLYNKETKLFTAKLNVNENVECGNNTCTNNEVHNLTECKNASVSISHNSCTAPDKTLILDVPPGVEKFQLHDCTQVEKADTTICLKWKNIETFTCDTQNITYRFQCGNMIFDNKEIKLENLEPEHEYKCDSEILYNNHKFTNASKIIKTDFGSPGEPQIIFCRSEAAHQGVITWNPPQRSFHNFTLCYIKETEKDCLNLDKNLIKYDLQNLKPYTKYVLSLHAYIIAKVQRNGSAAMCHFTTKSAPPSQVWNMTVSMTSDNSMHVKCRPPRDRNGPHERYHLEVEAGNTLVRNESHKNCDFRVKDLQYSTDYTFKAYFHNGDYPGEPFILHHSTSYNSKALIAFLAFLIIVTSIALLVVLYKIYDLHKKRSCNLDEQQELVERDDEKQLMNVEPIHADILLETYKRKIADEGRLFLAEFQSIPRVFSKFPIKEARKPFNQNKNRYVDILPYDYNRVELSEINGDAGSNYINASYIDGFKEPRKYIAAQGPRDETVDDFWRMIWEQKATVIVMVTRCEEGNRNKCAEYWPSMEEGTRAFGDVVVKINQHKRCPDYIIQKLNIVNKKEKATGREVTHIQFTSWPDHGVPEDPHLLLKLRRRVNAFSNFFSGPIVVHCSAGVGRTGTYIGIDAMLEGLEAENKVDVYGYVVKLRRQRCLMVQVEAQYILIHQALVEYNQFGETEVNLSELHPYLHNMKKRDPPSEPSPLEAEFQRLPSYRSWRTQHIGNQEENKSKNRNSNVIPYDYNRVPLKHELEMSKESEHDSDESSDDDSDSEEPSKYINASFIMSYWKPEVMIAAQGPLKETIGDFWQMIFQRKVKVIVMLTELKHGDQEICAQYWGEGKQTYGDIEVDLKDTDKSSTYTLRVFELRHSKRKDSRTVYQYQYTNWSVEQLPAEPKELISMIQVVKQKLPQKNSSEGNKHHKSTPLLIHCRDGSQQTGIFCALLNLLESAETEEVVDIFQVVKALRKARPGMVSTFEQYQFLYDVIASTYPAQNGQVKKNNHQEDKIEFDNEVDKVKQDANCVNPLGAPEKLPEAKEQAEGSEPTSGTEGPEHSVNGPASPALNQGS

Assay [6] addresses Dual specificity protein phosphatase 3 (Homo sapiens, UniProt P51452).

Sequence of Dual specificity protein phosphatase 3 (P51452 whole entry): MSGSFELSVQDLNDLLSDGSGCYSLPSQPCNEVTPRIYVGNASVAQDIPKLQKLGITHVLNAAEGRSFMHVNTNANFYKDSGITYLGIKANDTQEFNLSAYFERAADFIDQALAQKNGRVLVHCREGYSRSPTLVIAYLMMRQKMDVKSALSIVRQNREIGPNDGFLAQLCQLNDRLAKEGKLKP

In assay [1], `O=C(O)c1cc(-c2ccc(-c3cccc(C(F)(F)F)c3)cc2)on1` [5-{4-[3-(trifluoromethyl)phenyl]phenyl}-1,2-oxazole-3-carboxylic acid] returned an inhibition constant (Ki) of 2.5 µM.

Compound `CC(C)c1cc(-c2ccc(F)c(C(F)(F)F)c2)ccc1-c1cc(C(=O)O)no1` [5-{4-[4-fluoro-3-(trifluoromethyl)phenyl]-2-(propan-2-yl)phenyl}-1,2-oxazole-3-carboxylic acid] came in with a Ki in assay [1] of 0.5 µM.

As for `O=C(O)c1cc(-c2ccc(-c3ccc(F)c(C(F)(F)F)c3)cc2C2CCCCC2)on1` [5-{2-cyclohexyl-4-[4-fluoro-3-(trifluoromethyl)phenyl]phenyl}-1,2-oxazole-3-carboxylic acid], the Ki in assay [2] is over 50 µM; in assay [3], 21.4 µM; in assay [4], over 50 µM; in assay [5], 7.7 µM; in assay [6], over 50 µM.

`CC(C)c1cc(-c2cccc(C(F)(F)F)c2)ccc1-c1cc(C(=O)O)no1` [5-[2-(propan-2-yl)-4-[3-(trifluoromethyl)phenyl]phenyl]-1,2-oxazole-3-carboxylic acid] gave a Ki in assay [1] of 0.85 µM.

In turn, `O=C1CC(c2ccc(-c3cccc(C(F)(F)F)c3)cc2)S(=O)(=O)N1` (centres undefined) [5-{4-[3-(trifluoromethyl)phenyl]phenyl}-1,2-thiazolidine-1,1,3-trione] yielded an inhibition constant (Ki) in assay [1] of 8.8 µM.

Source of the values: BindingDB's records for doi:10.1021/ja0727520 (University of California Berkeley, 2007).
